# Assays:
# Thromboxane-A synthase = molecular target: T1, Thromboxane-A synthase (Homo sapiens, UniProt P24557); assay: Inhibition of TXA2 synthetase from human platelets
# T1 sequence (P24557 whole entry): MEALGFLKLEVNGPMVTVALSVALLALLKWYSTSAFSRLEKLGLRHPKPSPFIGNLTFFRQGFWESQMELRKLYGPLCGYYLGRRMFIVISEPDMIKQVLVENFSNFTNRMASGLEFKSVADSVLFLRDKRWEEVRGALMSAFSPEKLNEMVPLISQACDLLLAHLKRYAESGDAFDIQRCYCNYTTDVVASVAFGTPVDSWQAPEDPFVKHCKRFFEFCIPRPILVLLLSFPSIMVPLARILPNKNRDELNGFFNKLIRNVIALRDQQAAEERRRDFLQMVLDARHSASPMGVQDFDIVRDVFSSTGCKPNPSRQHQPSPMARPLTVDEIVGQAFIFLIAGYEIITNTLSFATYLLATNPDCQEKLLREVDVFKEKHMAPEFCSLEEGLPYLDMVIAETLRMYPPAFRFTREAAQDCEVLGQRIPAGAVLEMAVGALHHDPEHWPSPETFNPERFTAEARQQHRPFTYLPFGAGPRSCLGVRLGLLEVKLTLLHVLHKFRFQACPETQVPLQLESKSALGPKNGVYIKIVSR
# [1] = molecular target: T2, Cytochrome P450 11B1, mitochondrial (Rattus norvegicus, UniProt P15393); assay: Inhibition of 11 beta-hydroxylase from rat adrenal gland; format: tissue-based
# T2 sequence (P15393 whole entry): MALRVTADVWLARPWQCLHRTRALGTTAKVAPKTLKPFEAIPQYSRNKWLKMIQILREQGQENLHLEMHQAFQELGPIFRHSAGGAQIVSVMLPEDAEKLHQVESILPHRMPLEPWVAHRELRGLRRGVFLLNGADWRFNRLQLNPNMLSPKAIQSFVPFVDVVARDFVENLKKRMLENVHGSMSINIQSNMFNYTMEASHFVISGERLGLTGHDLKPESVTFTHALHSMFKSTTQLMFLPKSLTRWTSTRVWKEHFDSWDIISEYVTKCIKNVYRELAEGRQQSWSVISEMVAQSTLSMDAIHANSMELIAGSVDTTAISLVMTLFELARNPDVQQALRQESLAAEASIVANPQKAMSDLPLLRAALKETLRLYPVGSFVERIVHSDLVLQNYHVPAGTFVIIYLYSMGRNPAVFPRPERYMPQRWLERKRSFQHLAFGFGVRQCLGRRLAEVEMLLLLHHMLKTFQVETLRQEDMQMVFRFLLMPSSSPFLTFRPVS
# [2] = molecular target: T3, Prostaglandin G/H synthase (cyclooxygenase) (Ovis aries, UniProt P05979+P79208); assay: Inhibition of Prostaglandin G/H synthase from ram seminal vesicle microsomes
# T3 sequence (P05979 whole entry): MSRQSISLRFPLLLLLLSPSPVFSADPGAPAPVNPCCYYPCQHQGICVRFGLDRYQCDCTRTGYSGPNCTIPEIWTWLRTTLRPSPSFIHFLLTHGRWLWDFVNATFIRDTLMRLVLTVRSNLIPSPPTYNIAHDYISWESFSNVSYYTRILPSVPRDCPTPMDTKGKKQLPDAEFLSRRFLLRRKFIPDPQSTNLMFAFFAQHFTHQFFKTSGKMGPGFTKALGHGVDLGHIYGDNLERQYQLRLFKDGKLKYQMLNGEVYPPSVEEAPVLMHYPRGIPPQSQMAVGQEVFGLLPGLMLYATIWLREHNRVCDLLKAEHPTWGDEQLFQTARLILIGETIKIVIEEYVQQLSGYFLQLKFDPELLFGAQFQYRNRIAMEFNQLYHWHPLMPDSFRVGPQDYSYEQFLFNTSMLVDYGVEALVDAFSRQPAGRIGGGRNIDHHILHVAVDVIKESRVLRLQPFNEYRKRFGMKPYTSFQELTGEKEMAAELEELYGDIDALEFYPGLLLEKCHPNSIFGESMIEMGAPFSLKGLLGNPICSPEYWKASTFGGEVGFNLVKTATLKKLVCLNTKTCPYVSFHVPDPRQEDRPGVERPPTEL
# T3 sequence (P79208 whole entry): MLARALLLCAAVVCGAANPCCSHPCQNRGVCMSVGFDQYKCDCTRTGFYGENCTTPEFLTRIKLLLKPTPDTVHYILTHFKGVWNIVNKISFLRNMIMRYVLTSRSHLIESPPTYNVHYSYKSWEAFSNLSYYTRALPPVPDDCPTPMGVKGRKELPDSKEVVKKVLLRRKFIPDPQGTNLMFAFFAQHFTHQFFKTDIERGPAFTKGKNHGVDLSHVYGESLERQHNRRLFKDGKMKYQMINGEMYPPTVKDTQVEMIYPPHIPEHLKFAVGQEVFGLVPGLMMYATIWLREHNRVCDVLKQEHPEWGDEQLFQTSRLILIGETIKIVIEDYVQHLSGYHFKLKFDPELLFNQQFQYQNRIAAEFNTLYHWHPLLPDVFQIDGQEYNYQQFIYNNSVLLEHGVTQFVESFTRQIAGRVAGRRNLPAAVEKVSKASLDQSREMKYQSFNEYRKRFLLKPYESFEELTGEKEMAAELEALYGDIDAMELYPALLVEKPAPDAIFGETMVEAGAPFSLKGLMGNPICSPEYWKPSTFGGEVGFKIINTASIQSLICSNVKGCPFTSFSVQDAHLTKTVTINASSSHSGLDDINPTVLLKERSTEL
SMILES,IC50 (Thromboxane-A synthase) [µM],IC50 [1] [µM],IC50 [2] [M]
FC(F)(F)c1ccc2c(Cn3ccnc3)c[nH]c2c1,4.6,,
Cc1c(Cn2ccnc2)c2ccccc2n1/C=C/C(=O)O,0.07,,
c1ccc2c(Cn3ccnc3)c[nH]c2c1,0.025,10,> 0.001
Clc1ccc2[nH]cc(Cn3ccnc3)c2c1,3,,
CN(C)c1ccc2c(c1)c(Cn1ccnc1)cn2CCC(=O)O,0.082,,
O=C(O)Cn1cc(Cn2ccnc2)c2ccccc21,0.03,,> 0.0001
CC(C)c1[nH]c2ccccc2c1Cn1ccnc1,,,> 0.0001
Cc1ccc2c(c1)c(Cn1ccnc1)cn2CCC(=O)O,0.042,,
O=C(O)CCn1cc(Cn2ccnc2)c2cc(Cl)ccc21,0.021,,
COc1ccc2c(c1)c(Cn1ccnc1)cn2CCC(=O)O,0.043,,
Cc1c(Cn2ccnc2)c2ccccc2n1CCC(=O)O [DAZMEGREL],0.028,> 100,> 0.0001
O=C(O)c1ccc(OCCn2ccnc2)cc1 [DAZOXIBEN],,> 100,

# Other lines, results leading:
IC50 (Thromboxane-A synthase) [µM],IC50 [1] [µM],IC50 [2] [M],SMILES
0.0082,> 10,,CC(C)c1c(Cn2ccnc2)c2ccccc2n1CCC(=O)O
0.0049,,,O=C(O)CCn1c(C2CC2)c(Cn2ccnc2)c2ccccc21
0.0084,10,> 0.0001,CCn1cc(Cn2ccnc2)c2ccccc21
0.01,,,O=C(O)CCn1cc(Cn2ccnc2)c2ccc(C(F)(F)F)cc21
0.012,,,O=C(O)CCn1cc(Cn2ccnc2)c2cc(Br)ccc21
0.019,> 10,> 0.0001,O=C(O)CCn1cc(Cn2ccnc2)c2ccccc21
